Data taken from patent US20230212122A1, “MITOCHONDRIAL TARGETING COMPOUNDS FOR THE TREATMENT OF ASSOCIATED DISEASES” (The Regents of the University of Michigan, priority 2020, published 2023).

Tested on: UM16 cell line
Assay: GSEA of Bru-seq data (hallmark, KEGG, GO pathways, transcription factors)
Type: cell-based
Conditions: 4 hours
Text: Consistent with this observation, there are also massive metabolite pathways influenced including starch and sucrose metabolism, glycolysis and gluconeogenesis, purine metabolism, pyrimidine metabolism, N-glycan biosynthesis, etc.

CCOC(=O)[C@@H]1CCCN(S(=O)(=O)c2ccc(S(=O)(=O)N(CC)CC)cc2)C1 [DX2-201, ethyl (R)-1-((4-(N,N-diethylsulfamoyl)phenyl)sulfonyl)piperidine-3-carboxylate]
ES KEGG_AMINOACYL_TRNA_BIOSYNTHESIS (5 pM): −0.4260
ES KEGG_DNA_REPLICATION (5 pM): −0.5795
ES KEGG_NUCLEOTIDE_EXCISION_REPAIR (5 pM): −0.4603
ES KEGG_N_GLYCAN_BIOSYNTHESIS (5 pM): −0.5360
ES KEGG_OXIDATIVE_PHOSPHORYLATION (5 pM): −0.4451
ES KEGG_PARKINSONS_DISEASE (5 pM): −0.4446
ES KEGG_PROTEASOME (5 pM): −0.5628
ES KEGG_PURINE_METABOLISM (5 pM): −0.4914
ES KEGG_PYRIMIDINE_METABOLISM (5 pM): −0.4987
ES KEGG_RNA_POLYMERASE (5 pM): −0.6348
ES KEGG_SPLICEOSOME (5 pM): −0.4510
NES KEGG_ALZHEIMERS_DISEASE (5 pM): −1.6021
NES KEGG_AMINOACYL_TRNA_BIOSYNTHESIS (5 pM): −1.4417
NES KEGG_DNA_REPLICATION (5 pM): −1.9358
NES KEGG_HUNTINGTONS_DISEASE (5 pM): −1.7040
NES KEGG_MISMATCH_REPAIR (5 pM): −1.8751
NES KEGG_NUCLEOTIDE_EXCISION_REPAIR (5 pM): −1.5835
NES KEGG_N_GLYCAN_BIOSYNTHESIS (5 pM): −1.8440
NES KEGG_OXIDATIVE_PHOSPHORYLATION (5 pM): −1.7650
NES KEGG_PARKINSONS_DISEASE (5 pM): −1.7382
NES KEGG_PROTEASOME (5 pM): −1.9164
NES KEGG_PURINE_METABOLISM (5 pM): −2.0380
NES KEGG_PYRIMIDINE_METABOLISM (5 pM): −1.9279
NES KEGG_SPLICEOSOME (5 pM): −1.8728
ES GO_ADP_METABOLIC_PROCESS (5 μM): 0.6343
ES GO_ATP_GENERATION_FROM_ADP (5 μM): 0.6848
ES GO_GLUCOSE_CATABOLIC_PROCESS (5 μM): 0.7209
ES GO_HEXOSE_CATABOLIC_PROCESS (5 μM): 0.6548
ES GO_MONOSACCHARIDE_CATABOLIC_PROCESS (5 μM): 0.5791
ES GO_NADH_METABOLIC_PROCESS (5 μM): 0.6704
ES GO_NEGATIVE_REGULATION_OF_FAT_CELL_DIFFERENTIATION (5 μM): 0.6098
ES GO_NUCLEOTIDE_PHOSPHORYLATION (5 μM): 0.5920
ES GO_PYRUVATE_METABOLIC_PROCESS (5 μM): 0.6035
ES GO_RESPONSE_TO_OXYGEN_LEVELS (5 μM): 0.4230
ES GO_RIBONUCLEOSIDE_DIPHOSPHATE_METABOLIC_PROCESS (5 μM): 0.5746
ES HALLMARK_ALLOGRAFT_REJECTION (5 μM): 0.2962
ES HALLMARK_ANDROGEN_RESPONSE (5 μM): 0.3155
ES HALLMARK_ANGIOGENESIS (5 μM): −0.5078
ES HALLMARK_APOPTOSIS (5 μM): 0.3812
ES HALLMARK_BILE_ACID_METABOLISM (5 μM): 0.3249
ES HALLMARK_CHOLESTEROL_HOMEOSTASIS (5 μM): 0.4969
ES HALLMARK_DNA_REPAIR (5 μM): −0.4085
ES HALLMARK_E2F_TARGETS (5 μM): −0.3804
ES HALLMARK_ESTROGEN_RESPONSE_LATE (5 μM): 0.3437
ES HALLMARK_FATTY_ACID_METABOLISM (5 μM): 0.2942
ES HALLMARK_GLYCOLYSIS (5 μM): 0.4109
ES HALLMARK_HEDGEHOG_SIGNALING (5 μM): 0.4848
ES HALLMARK_HEME_METABOLISM (5 μM): 0.3641
ES HALLMARK_HYPOXIA (5 μM): 0.6294
ES HALLMARK_IL2_STAT5_SIGNALING (5 μM): 0.3402
ES HALLMARK_INFLAMMATORY_RESPONSE (5 μM): 0.2995
ES HALLMARK_KRAS_SIGNALING_DN (5 μM): 0.3965
ES HALLMARK_MITOTIC_SPINDLE (5 μM): 0.3104
ES HALLMARK_MTORC1_SIGNALING (5 μM): 0.2680
ES HALLMARK_MYC_TARGETS_V1 (5 μM): −0.5426
ES HALLMARK_MYC_TARGETS_V2 (5 μM): −0.6265
ES HALLMARK_MYOGENESIS (5 μM): 0.3657
ES HALLMARK_OXIDATIVE_PHOSPHORYLATION (5 μM): −0.3812
ES HALLMARK_P53_PATHWAY (5 μM): 0.3403
ES HALLMARK_TNFA_SIGNALING_VIA_NFKB (5 μM): 0.3199
ES HALLMARK_UNFOLDED_PROTEIN_RESPONSE (5 μM): −0.3254
ES HALLMARK_UV_RESPONSE_DN (5 μM): 0.3784
ES HALLMARK_XENOBIOTIC_METABOLISM (5 μM): 0.2890
ES KEGG_DORSO_VENTRAL_AXIS_FORMATION (5 μM): 0.6614
ES KEGG_GLYCOLYSIS_GLUCONEOGENESIS (5 μM): 0.5362
ES KEGG_LEISHMANIA_INFECTION (5 μM): 0.5017
ES KEGG_REGULATION_OF_AUTOPHAGY (5 μM): 0.5972
ES KEGG_RENAL_CELL_CARCINOMA (5 μM): 0.4210
ES KEGG_STARCH_AND_SUCROSE_METABOLISM (5 μM): 0.7356
ES KEGG_TYPE_II_DIABETES_MELLITUS (5 μM): 0.5316
NES GO_ADP_METABOLIC_PROCESS (5 μM): 2.1062
NES GO_ATP_GENERATION_FROM_ADP (5 μM): 2.0929
NES GO_GLUCOSE_CATABOLIC_PROCESS (5 μM): 2.1191
NES GO_HEXOSE_CATABOLIC_PROCESS (5 μM): 2.1301
NES GO_MONOSACCHARIDE_CATABOLIC_PROCESS (5 μM): 1.9771
NES GO_NADH_METABOLIC_PROCESS (5 μM): 2.0814
NES GO_NEGATIVE_REGULATION_OF_FAT_CELL_DIFFERENTIATION (5 μM): 1.9052
NES GO_NUCLEOTIDE_PHOSPHORYLATION (5 μM): 2.0727
NES GO_PYRUVATE_METABOLIC_PROCESS (5 μM): 2.1281
NES GO_RESPONSE_TO_OXYGEN_LEVELS (5 μM): 1.9612
NES GO_RIBONUCLEOSIDE_DIPHOSPHATE_METABOLIC_PROCESS (5 μM): 2.0919
NES HALLMARK_ALLOGRAFT_REJECTION (5 μM): 1.2241
NES HALLMARK_ANDROGEN_RESPONSE (5 μM): 1.3002
NES HALLMARK_ANGIOGENESIS (5 μM): −1.4124
NES HALLMARK_APOPTOSIS (5 μM): 1.6931
NES HALLMARK_BILE_ACID_METABOLISM (5 μM): 1.2479
NES HALLMARK_CHOLESTEROL_HOMEOSTASIS (5 μM): 1.9354
NES HALLMARK_DNA_REPAIR (5 μM): −1.7322
NES HALLMARK_E2F_TARGETS (5 μM): −1.7010
NES HALLMARK_ESTROGEN_RESPONSE_LATE (5 μM): 1.5630
NES HALLMARK_FATTY_ACID_METABOLISM (5 μM): 1.2729
NES HALLMARK_GLYCOLYSIS (5 μM): 1.8782
NES HALLMARK_HEDGEHOG_SIGNALING (5 μM): 1.3854
NES HALLMARK_HEME_METABOLISM (5 μM): 1.6288
NES HALLMARK_HYPOXIA (5 μM): 2.8139
NES HALLMARK_IL2_STAT5_SIGNALING (5 μM): 1.5174
NES HALLMARK_INFLAMMATORY_RESPONSE (5 μM): 1.2667
NES HALLMARK_KRAS_SIGNALING_DN (5 μM): 1.4318
NES HALLMARK_MITOTIC_SPINDLE (5 μM): 1.4709
NES HALLMARK_MTORC1_SIGNALING (5 μM): 1.2451
NES HALLMARK_MYC_TARGETS_V1 (5 μM): −2.4192
NES HALLMARK_MYC_TARGETS_V2 (5 μM): −2.2565
NES HALLMARK_MYOGENESIS (5 μM): 1.5149
NES HALLMARK_OXIDATIVE_PHOSPHORYLATION (5 μM): −1.6882
NES HALLMARK_P53_PATHWAY (5 μM): 1.5682
NES HALLMARK_TNFA_SIGNALING_VIA_NFKB (5 μM): 1.4745
NES HALLMARK_UNFOLDED_PROTEIN_RESPONSE (5 μM): −1.3390
NES HALLMARK_UV_RESPONSE_DN (5 μM): 1.6434
NES HALLMARK_XENOBIOTIC_METABOLISM (5 μM): 1.2573
NES KEGG_DORSO_VENTRAL_AXIS_FORMATION (5 μM): 1.9145
NES KEGG_GLYCOLYSIS_GLUCONEOGENESIS (5 μM): 1.8482
NES KEGG_LEISHMANIA_INFECTION (5 μM): 1.6760
NES KEGG_REGULATION_OF_AUTOPHAGY (5 μM): 1.7250
NES KEGG_RENAL_CELL_CARCINOMA (5 μM): 1.6054
NES KEGG_STARCH_AND_SUCROSE_METABOLISM (5 μM): 2.1177
NES KEGG_TYPE_II_DIABETES_MELLITUS (5 μM): 1.6335
